# Legend:
# [1] = system: insulin-expressing cells derived from TCB f-MΦ; test: Insulin release from insulin-expressing cells derived from TCB f-MΦ (ELISA); format: cell-based, human; conditions: 1 h
# Method: TPO-expanded CB f-MΦ (TCB f-MΦ) cultured in 24-well tissue culture plates (Costar, Corning, N.Y.) at 60-70% confluence was treated for 3 days with 1 μg/ml LPS+25 mM glucose in 1 ml 7% FBS-RPMI 1640 medium per well. TCB f-MΦ cultured in the same concentration of glucose served as control. Insulin release was performed as previously described with minor modifications [F. Schuit, A. De Vos, S. Farfari, K. Moens, D. Pipeleers, T. Brun, M. Prentki, Metabolic fate of glucose in purified islet cells. Glucose-regulated anaplerosis in beta cells, J. Biol. Chem. 272 (1997) 18572-18579; and N. Lumelsky, O. Blondel, P. Laeng, I. Velasco, R. Ravin, R. McKay, Differentiation of embryonic stem cells to insulin-secreting structures similar to pancreatic islets, Science 292 (2001) 1389-1394]. Cells were washed 5 times with PBS to remove the serum and then incubated with Kreb's buffer (120 mM NaCl, 5 mM KCl, 2.5 mM CaCl2, 1.1 mM MgCl2, 25 mM NaHCO3, 0.1% BSA) [N. Lumelsky, O. Blondel, P. Laeng, I. Velasco, R. Ravin, R. McKay, Differentiation of embryonic stem cells to insulin-secreting structures similar to pancreatic islets, Science 292 (2001) 1389-1394] for 30 min in the absence of glucose, at 37° C., 8% CO2 conditions. After removing the Kreb's buffer, cells were incubated with different concentration of glucose (0, 5, 10, and 25 mM) and/or other secretagogues (10 μM tolbudamide (Sigma), 500 μM diazoxide (Sigma), or 25 mM mannite (Sigma) in 300 μl Kreb's buffer/well for 1 h. Each treatment had duplicated wells. Insulin levels were monitored using an ultrasensitive human insulin enzyme-linked immunosorbent assay (ELISA) kit (Alpco Diagnostics, Windham, N.H.) following the manufacturer's protocols. Cell number/well from each treatment was finally quantified for calculating insulin level.
# CB f-MΦ [2] = test: Cell proliferation of CB f-MΦ with TPO (CyQUANT Cell Proliferation Assay); format: cell-based, human
# Method: Therefore, this stage f-MΦ, at ˜80% purity, was selected to examine the effect of TPO. Cells were washed with RPMI 1640 medium three times and then incubated with different concentration of TPO, such as 80, 40, 20, 10, 5, 2.5, 1.25, 0.625, and 0 ng/ml in the 8-well Lab-Tek chamber slides (Nunc, Naperville, Ill.) at 37° C., 8% CO2 conditions. After 4 days, cell proliferation was evaluated using CyQUANT® Cell Proliferation Assay Kit (Molecular Probes, Eugene, Oreg.). Cell fluorescence was measured using a Synergy HT Multi-Detection microplate reader (Bio-Tek Instruments Inc., Winooski, Vt.) equipped with filters for ˜480 nm excitation and ˜520 nm emission. The optical values were analyzed using the manufacturer's software KC4 v3.1.
# CB f-MΦ [3] = test: Immunostaining of TPO-expanded CB f-MΦ for phenotype markers; format: cell-based, human
# Method: For f-MΦ expansion, the cells at 70% confluence were passaged at ratio 1:2 by pippetting and gently scraping with 100 μl tips (Rainin, Woburn, Mass.). Media were changed every 5-7 days with the fresh RPMI 1640 medium supplemented with 3.5% fetal bovine serum and 5 ng/ml thrombopoietin (TPO).
# TCB f-MΦ [4] = test: Differentiation of f-MΦ into insulin-expressing cells with LPS and high glucose (immunostaining); format: cell-based, human
# Excerpt: The final insulin concentration in the culture medium was 0.196 μU/ml.
# TCB f-MΦ [5] = conditions: 50 ng/ml VEGF for 5-7 days
# Method: The cells were incubated for 20 min at room temperature with 2.5% diluted normal horse serum (Vector Laboratories, Burlingame, Calif.) to block nonspecific staining. Cells were then incubated with primary antibodies, the isotype-matched IgG1κ (BD PharMingen, San Diego, Calif.) (as control for mouse monoclonal antibodies), and normal rabbit serum (as control for rabbit polyclonal antibodies). After staining, the slides were mounted with Mounting Medium (Vector Laboratories, Burlingame, Calif.). Cells were viewed and photographed using a Zeiss LSM 510 META confocal microscope equipped with a 25× water immersion objective (Carl Zeiss Inc.), with Argon 488 nm laser for FITC fluorochrome filtered through LP505.
# The TPO-expanded CB f-MΦ was treated with 50 ng/ml VEGF (Cell Sciences Inc., Canton, Mass.) in RPMI-1640 medium supplemented with 7% heat inactivated FBS as previously described [Y. Zhao, D. Glesne, E. Huberman, A human peripheral blood monocyte-derived subset acts as pluripotent stem cells, Proc. Natl. Acad. Sci. U.S.A. 100 (2003) 2426-2431]. After 5-7 days, the treated and untreated cells were prepared for characterizing with endothelial markers, including antibodies to Flt-1, Flk-1, vWF, CD31, and incorporating Dil-Ac-LDL as previously described [D. A. Ingram, L. E. Mead, H. Tanaka, V. Meade, A. Fenoglio, K. Mortell, K. Pollok, M. J. Ferkowicz, D. Gilley, M. C.
# [6] = system: Human umbilical cord blood-derived monocytes; test: Generation of f-MΦ from cord blood monocytes with M-CSF (morphology, cell counting); format: cell-based
# Method: Human umbilical cord blood samples (50-100 ml/unit) were obtained from healthy donors (Life-Source Blood Services, Glenview, Ill.). The f-MΦ culture was performed as previously described using human peripheral blood (14). Briefly, purified monocytes were seeded into the 8-Well Lab-Tek II Chamber Slide (Fisher Scientific) at 1×10^5 cells/ml, 0.5 ml/well in RPMI 1640 medium supplemented with 7% fetal bovine serum (Invitrogen, Carlsbad, Calif.) and 50 ng/ml M-CSF. The purity of f-MΦ normally reached 80-90% after incubation for 10-14 days at 37° C., 8% CO2 and was then used for experiments.
# [7] = 5 ng/ml TPO, culture for 2 months
molecule,measurement,setting,value
CC1=NS(=O)(=O)c2cc(Cl)ccc2N1 [diazoxide],insulin release,"[1]; 500 μM, in the presence of 25 mM glucose",inhibits insulin release
OC[C@@H](O)[C@@H](O)[C@H](O)[C@H](O)CO [mannite],insulin release,"[1]; 25 mM, osmolarity control",failed to stimulate insulin release
CCCCNC(=O)NS(=O)(=O)c1ccc(C)cc1 [tolbutamide],insulin release,"[1]; 10 μM, in the presence of 5 mM glucose",stimulates insulin release
Thrombopoietin [TPO],cell number relative to TPO-untreated CB f-MΦ,CB f-MΦ [2]; TPO 2.5-5 ng/ml,about 2 times
same,cell number relative to control monocytes,CB f-MΦ [2]; TPO 2.5-5 ng/ml,~10 times
same,proliferation of CB f-MΦ at higher dosage,CB f-MΦ [2]; TPO >40 ng/ml,inhibited the proliferation
same,"CD34 expression, share of cells",CB f-MΦ [3]; [7],~30%
same,"expression of CD45, CD14, CD163 and CD117",CB f-MΦ [3]; [7],at the same level as parental CB f-MΦ
same,"expression of platelet and megakaryocyte markers CD41a, CD41b, CD42b",CB f-MΦ [3]; 4th and 5th passaged cells after TPO expansion,not induced
lipopolysaccharide [LPS],cells expressing glucagon-like peptide 1 receptor,"TCB f-MΦ [4]; CB f-MΦ, 50 ng/ml LPS in the presence of 25 mM glucose for 2 days",around 70%
same,cells strongly positive for insulin and C-peptide,TCB f-MΦ [4]; LPS 1 μg/ml in the presence of 25 mM glucose,85-90%
vascular endothelial cell growth factor [VEGF],expression of endothelial cell-associated markers,TCB f-MΦ [5],"significantly expressed Flt-1, Flk-1, vWF, and CD31"
"macrophage colony-stimulating factor (protein, UniProt P09603 33-554, looked up, Recombinant human macrophage colony-stimulating factor from Sigma) Macrophage colony-stimulating …: EEVSEYCSHMIGSGHLQSLQRLIDSQMETSCQITFEFVDQEQLKDPVCYLKKAFLLVQDIMEDTMRFRDNTPNAIAIVQLQELSLRLKSCFTKDYEEHDKACVRTFYETPLQLLEKVKNVFNETKNLLDKDWNIFSKNCNNSFAECSSQDVVTKPDCNCLYPKAIPSSDPASVSPHQPLAPSMAPVAGLTWEDSEGTEGSSLLPGEQPLHTVDPGSAKQRPPRSTCQSFEPPETPVVKDSTIGGSPQPRPSVGAFNPGMEDILDSAMGTNWVPEEASGEASEIPVPQGTELSPSRPGGGSMQTEPARPSNFLSASSPLPASAKGQQPADVTGTALPRVGPVRPTGQDWNHTPQKTDHPSALLRDPPEPGSPRISSLRPQGLSNPSTLSAQPQLSRSHSSGSVLPLGELEGRRSTRDRRSPAEPEGGPASEGAARPLPRFNSVPLTDTGHERQSEGSFSPQLQESVFHLLVPSVILVLLAVGGLLFYRWRRRSHQEPQRADSPLEQPEGSPLTQDDRQVELPV",cells elongated,[6]; 50 ng/ml M-CSF for 10-14 days,80-90%
same,cell number,"[6]; 50 ng/ml M-CSF, FIG. 1",significantly increased the cell number
